Experimental data taken from patent US12723063B2, “GIPR-agonist compounds” (Eli Lilly and Company, priority 2019, dated 2026).
*1 amine or outer side, *2 acyl side, *3 side chain or, on linkers, in order; H or OH if unused. Where a SMILES comes first, the peptide text is derived from it. Side-chain parts run from the residue outwards. [ ]: non-standard residue; d: D form. The star is where a group is joined. C20 diacid = O=C(O)CCCCCCCCCCCCCCCCCCC(=O)*; αMePhe(2-F) = C[C@](N)(Cc1ccccc1F)C(=O)O; γGlu = O=C(O)[C@H](CCC(=O)[*:2])N[*:1]; 4Pal = N[C@@H](Cc1ccncc1)C(=O)O; αMeL = CC(C)C[C@](C)(N)C(=O)O; Orn = NCCC[C@H](N)C(=O)O; AEEA = NCCOCCOCC(=O)O; Aib = CC(C)(N)C(=O)O

Key:
human GcgR = biological target: T1, human GcgR (Homo sapiens, UniProt P47871); assay: [125I]-Glucagon binding, SPA with WGA beads, 0.1% bacitracin; conditions: geometric mean, read-out: hGcgR Ki
T1 construct: expressed in transfected cells; crude membranes
T1 sequence (P47871 26-477): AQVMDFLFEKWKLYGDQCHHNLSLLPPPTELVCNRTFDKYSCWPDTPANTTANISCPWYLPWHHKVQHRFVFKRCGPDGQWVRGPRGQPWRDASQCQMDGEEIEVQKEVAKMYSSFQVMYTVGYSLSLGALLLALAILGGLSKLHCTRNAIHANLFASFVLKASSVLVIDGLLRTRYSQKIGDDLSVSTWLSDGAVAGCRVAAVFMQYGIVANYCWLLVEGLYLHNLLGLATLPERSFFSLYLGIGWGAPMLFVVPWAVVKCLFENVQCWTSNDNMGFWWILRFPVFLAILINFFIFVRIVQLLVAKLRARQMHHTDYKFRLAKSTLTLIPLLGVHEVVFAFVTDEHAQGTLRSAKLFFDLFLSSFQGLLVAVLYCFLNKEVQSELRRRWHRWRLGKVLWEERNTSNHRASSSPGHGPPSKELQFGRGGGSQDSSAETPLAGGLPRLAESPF
Outline: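 SPA competition binding with WGA beads on crude membranes from HEK293 cells stably expressing hGcgR. Buffer: 25 mM HEPES pH 7.4, 2.5 mM CaCl2, 1 mM MgCl2, 0.1% bacitracin, 0.003% Tween-20; 10-point 3-fold dilutions, NSB with 1 μM Gcg.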

human GLP-1R = biological target: T2, human GLP-1R (Homo sapiens, UniProt P43220); assay: [125I]-GLP-1 binding, SPA with WGA beads, 0.1% bacitracin; conditions: geometric mean, read-out: hGLP1R Ki
T2 construct: expressed in transfected cells; crude membranes
T2 sequence (P43220 24-463): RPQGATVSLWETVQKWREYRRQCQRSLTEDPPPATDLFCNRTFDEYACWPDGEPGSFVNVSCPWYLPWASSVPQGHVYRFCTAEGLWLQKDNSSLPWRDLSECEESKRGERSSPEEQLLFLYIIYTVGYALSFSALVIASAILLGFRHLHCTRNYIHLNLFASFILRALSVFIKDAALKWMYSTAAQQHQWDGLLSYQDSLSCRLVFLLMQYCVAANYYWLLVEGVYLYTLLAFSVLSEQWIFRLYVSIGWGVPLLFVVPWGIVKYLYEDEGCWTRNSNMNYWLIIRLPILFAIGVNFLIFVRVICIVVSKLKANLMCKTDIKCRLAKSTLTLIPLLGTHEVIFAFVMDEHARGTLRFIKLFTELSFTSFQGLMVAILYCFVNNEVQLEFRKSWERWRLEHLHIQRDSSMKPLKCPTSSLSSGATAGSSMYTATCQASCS
Outline: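 Binding buffer was 25 mM HEPES pH 7.4 with 2.5 mM CaCl2, 1 mM MgCl2, 0.1% (w/v) bacitracin, 0.003% Tween-20 and EDTA-free protease inhibitors. Four-parameter regression gave IC50, converted to Ki (geometric mean, SEM, n independent days).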

Row | SMILES | Ki (human GcgR) [nM] | Ki (human GLP-1R) [nM]
1 | CC[C@H](C)[C@H](NC(=O)[C@H](CO)NC(=O)[C@H](Cc1ccc(O)cc1)NC(=O)[C@H](CC(=O)O)NC(=O)[C@H](CO)NC(=O)[C@@H](NC(=O)[C@](C)(Cc1ccccc1F)NC(=O)[C@@H](NC(=O)CNC(=O)[C@H](CCC(=O)O)NC(=O)C(C)(C)NC(=O)[C@@H](N)Cc1ccc(O)cc1)[C@@H](C)O)[C@@H](C)CC)C(=O)N[C@@H](C)C(=O)N[C@@H](CC(C)C)C(=O)N[C@@H](CC(=O)O)C(=O)N[C@@H](CCCCN)C(=O)N[C@H](C(=O)N[C@@H](Cc1c[nH]cn1)C(=O)N[C@@H](CCC(N)=O)C(=O)NC(C)(C)C(=O)N[C@@H](CC(=O)O)C(=O)N[C@@H](Cc1ccccc1)C(=O)N[C@H](C(=O)N[C@@H](CCC(=O)O)C(=O)N[C@@H](Cc1ccncc1)C(=O)N[C@@H](CCCCNC(=O)COCCOCCNC(=O)COCCOCCNC(=O)CC[C@H](NC(=O)CCCCCCCCCCCCCCCCCCC(=O)O)C(=O)O)C(=O)N[C@@H](CC(C)C)C(=O)N[C@@H](CCC(=O)O)C(=O)N[C@@H](C)C(=O)NCC(=O)N1CCC[C@H]1C(=O)N[C@@H](CO)C(=O)N[C@@H](CO)C(=O)NCC(=O)N[C@@H](C)C(=O)N1CCC[C@H]1C(=O)N1CCC[C@H]1C(=O)N1CCC[C@H]1C(=O)N[C@@H](CO)C(N)=O)C(C)C)[C@@H](C)CC [Example 113] (H-Y[Aib]EGT[αMePhe(2-F)]ISDYSIALDKIHQ[Aib]DFVE[4Pal]K([AEEA-AEEA-γGlu-C20 diacid])LEAGPSSGAPPPS-NH2) | 821 | > 921
2 | CC[C@H](C)[C@H](NC(=O)[C@H](CO)NC(=O)[C@H](Cc1ccc(O)cc1)NC(=O)[C@H](CC(=O)O)NC(=O)[C@H](CO)NC(=O)[C@@H](NC(=O)[C@](C)(Cc1ccccc1F)NC(=O)[C@@H](NC(=O)CNC(=O)[C@H](CCC(=O)O)NC(=O)C(C)(C)NC(=O)[C@@H](N)Cc1ccc(O)cc1)[C@@H](C)O)[C@@H](C)CC)C(=O)N[C@@H](C)C(=O)N[C@@H](CC(C)C)C(=O)N[C@@H](CC(=O)O)C(=O)N[C@@H](CCCCN)C(=O)N[C@H](C(=O)N[C@@H](Cc1c[nH]cn1)C(=O)N[C@@H](CCC(N)=O)C(=O)NC(C)(C)C(=O)N[C@@H](CC(=O)O)C(=O)N[C@@H](Cc1ccccc1)C(=O)N[C@H](C(=O)N[C@@H](CCC(=O)O)C(=O)N[C@@H](Cc1ccncc1)C(=O)N[C@@H](CCCCNC(=O)COCCOCCNC(=O)COCCOCCNC(=O)CC[C@H](NC(=O)CCCCCCCCCCCCCCCCCCC(=O)O)C(=O)O)C(=O)N[C@@H](CC(C)C)C(=O)N[C@@H](CCC(=O)O)C(=O)N[C@@H](CCC(N)=O)C(=O)NCC(=O)N1CCC[C@H]1C(=O)N[C@@H](CO)C(=O)N[C@@H](CO)C(=O)NCC(=O)N[C@@H](C)C(=O)N1CCC[C@H]1C(=O)N1CCC[C@H]1C(=O)N1CCC[C@H]1C(=O)N[C@@H](CO)C(N)=O)C(C)C)[C@@H](C)CC [Example 114] (H-Y[Aib]EGT[αMePhe(2-F)]ISDYSIALDKIHQ[Aib]DFVE[4Pal]K([AEEA-AEEA-γGlu-C20 diacid])LEQGPSSGAPPPS-NH2) | > 971 | > 921
3 | CC[C@H](C)[C@H](NC(=O)[C@H](CCCCN)NC(=O)[C@H](CC(=O)O)NC(=O)[C@H](CC(C)C)NC(=O)[C@](C)(CC(C)C)NC(=O)[C@@H](NC(=O)[C@H](CO)NC(=O)[C@H](Cc1ccc(O)cc1)NC(=O)[C@H](CC(=O)O)NC(=O)[C@H](CO)NC(=O)[C@@H](NC(=O)[C@H](Cc1ccccc1)NC(=O)[C@@H](NC(=O)CNC(=O)[C@H](CCC(=O)O)NC(=O)C(C)(C)NC(=O)[C@@H](N)Cc1ccc(O)cc1)[C@@H](C)O)[C@@H](C)CC)[C@@H](C)CC)C(=O)N[C@@H](CCCNC(=N)N)C(=O)N[C@@H](CCC(N)=O)C(=O)NC(C)(C)C(=O)N[C@@H](CC(=O)O)C(=O)N[C@@H](Cc1ccccc1)C(=O)N[C@H](C(=O)N[C@@H](CCC(=O)O)C(=O)N[C@@H](Cc1ccc(O)cc1)C(=O)N[C@@H](CCCCNC(=O)COCCOCCNC(=O)COCCOCCNC(=O)CC[C@H](NC(=O)CCCCCCCCCCCCCCCCCCC(=O)O)C(=O)O)C(=O)N[C@@H](CC(C)C)C(=O)N[C@@H](CCC(=O)O)C(=O)NCC(=O)NCC(=O)N1CCC[C@H]1C(=O)N[C@@H](CO)C(=O)N[C@@H](CO)C(=O)NCC(=O)N[C@@H](C)C(=O)N1CCC[C@H]1C(=O)N1CCC[C@H]1C(=O)N1CCC[C@H]1C(=O)N[C@@H](CO)C(N)=O)C(C)C [Example 115] (H-Y[Aib]EGTFISDYSI[αMeL]LDKIRQ[Aib]DFVEYK([AEEA-AEEA-γGlu-C20 diacid])LEGGPSSGAPPPS-NH2) | 373 | > 912
4 | CC[C@H](C)[C@H](NC(=O)[C@H](CCCN)NC(=O)[C@H](CC(=O)O)NC(=O)[C@H](CC(C)C)NC(=O)[C@](C)(CC(C)C)NC(=O)[C@@H](NC(=O)[C@H](CO)NC(=O)[C@H](Cc1ccc(O)cc1)NC(=O)[C@H](CC(=O)O)NC(=O)[C@H](CO)NC(=O)[C@@H](NC(=O)[C@H](Cc1ccccc1)NC(=O)[C@@H](NC(=O)CNC(=O)[C@H](CCC(=O)O)NC(=O)C(C)(C)NC(=O)[C@@H](N)Cc1ccc(O)cc1)[C@@H](C)O)[C@@H](C)CC)[C@@H](C)CC)C(=O)N[C@@H](CCCNC(=N)N)C(=O)N[C@@H](CCC(N)=O)C(=O)NC(C)(C)C(=O)N[C@@H](CC(=O)O)C(=O)N[C@@H](Cc1ccccc1)C(=O)N[C@H](C(=O)N[C@@H](CCC(=O)O)C(=O)N[C@@H](Cc1ccc(O)cc1)C(=O)N[C@@H](CCCCNC(=O)COCCOCCNC(=O)COCCOCCNC(=O)CC[C@H](NC(=O)CCCCCCCCCCCCCCCCCCC(=O)O)C(=O)O)C(=O)N[C@@H](CC(C)C)C(=O)N[C@@H](CCC(=O)O)C(=O)NCC(=O)NCC(=O)N1CCC[C@H]1C(=O)N[C@@H](CO)C(=O)N[C@@H](CO)C(=O)NCC(=O)N[C@@H](C)C(=O)N1CCC[C@H]1C(=O)N1CCC[C@H]1C(=O)N1CCC[C@H]1C(=O)N[C@@H](CO)C(N)=O)C(C)C [Example 116] (H-Y[Aib]EGTFISDYSI[αMeL]LD[Orn]IRQ[Aib]DFVEYK([AEEA-AEEA-γGlu-C20 diacid])LEGGPSSGAPPPS-NH2) | 178 | > 912
5 | CC[C@H](C)[C@H](NC(=O)[C@H](CCCCN)NC(=O)[C@H](CC(=O)O)NC(=O)[C@H](CC(C)C)NC(=O)[C@](C)(CC(C)C)NC(=O)[C@@H](NC(=O)[C@H](CO)NC(=O)[C@H](Cc1ccc(O)cc1)NC(=O)[C@H](CC(=O)O)NC(=O)[C@H](CO)NC(=O)[C@@H](NC(=O)[C@H](Cc1ccccc1)NC(=O)[C@@H](NC(=O)CNC(=O)[C@H](CCC(=O)O)NC(=O)C(C)(C)NC(=O)[C@@H](N)Cc1ccc(O)cc1)[C@@H](C)O)[C@@H](C)CC)[C@@H](C)CC)C(=O)N[C@@H](Cc1c[nH]cn1)C(=O)N[C@@H](CCC(N)=O)C(=O)NC(C)(C)C(=O)N[C@@H](CC(=O)O)C(=O)N[C@@H](Cc1ccccc1)C(=O)N[C@H](C(=O)N[C@@H](CCC(=O)O)C(=O)N[C@@H](Cc1ccc(O)cc1)C(=O)N[C@@H](CCCCNC(=O)COCCOCCNC(=O)COCCOCCNC(=O)CC[C@H](NC(=O)CCCCCCCCCCCCCCCCCCC(=O)O)C(=O)O)C(=O)N[C@@H](CC(C)C)C(=O)N[C@@H](CCC(=O)O)C(=O)N[C@@H](C)C(=O)NCC(=O)N1CCC[C@H]1C(=O)N[C@@H](CO)C(=O)N[C@@H](CO)C(=O)NCC(=O)N[C@@H](C)C(=O)N1CCC[C@H]1C(=O)N1CCC[C@H]1C(=O)N1CCC[C@H]1C(=O)N[C@@H](CO)C(N)=O)C(C)C [Example 117] (H-Y[Aib]EGTFISDYSI[αMeL]LDKIHQ[Aib]DFVEYK([AEEA-AEEA-γGlu-C20 diacid])LEAGPSSGAPPPS-NH2) | 685 | 591
